Here are results for seven compounds from the NIST ThermoML archive (doi:10.1016/j.jct.2016.11.003).

± gives the expanded uncertainty stated by the source.

For data set [1] the following is noted: 298 K; 101 kPa; Crystal; X-ray diffraction.
A short description of data set [2]: xn = mol fraction of the nth substance listed. As to conditions: 298 K, Crystal, X-ray diffraction.
Data set [3] is described as follows: excess molar enthalpy (molar enthalpy of mixing); xn = mol fraction of the nth substance listed. As to conditions: 298 K, 100 kPa, Crystal, Calvet calorimetry.

As a reminder, the mass density is mass per unit of volume.

On to `O=P([O-])([O-])[O-].[Eu+3]` [europium phosphate], for which, in data set [1], the mass density is given as 5810 ± 40 kg/m3.

In the case of `O=P([O-])([O-])[O-].[Eu+3]` [europium phosphate] + O=P([O-])([O-])[O-].[La+3], the mass density is reported as 5130 ± 30 kg/m3 in data set [2] (101 kPa, x1 = 0.11); 5210 ± 30 kg/m3 in data set [2] (101 kPa, x1 = 0.23); 5340 ± 30 kg/m3 in data set [2] (101 kPa, x1 = 0.4); 5470 ± 30 kg/m3 in data set [2] (101 kPa, x1 = 0.58); 5570 ± 30 kg/m3 in data set [2] (101 kPa, x1 = 0.71); 5660 ± 30 kg/m3 in data set [2] (101 kPa, x1 = 0.82). Also, the mass density in data set [2] (101 kPa, x1 = 0.91) was determined as 5730 ± 30 kg/m3; in data set [2] (101 kPa, x1 = 1) it was 5810 ± 40 kg/m3. Moreover, the excess molar enthalpy came to 0.452 ± 0.43 kcal/mol in data set [3] (x1 = 0.1); 0.234 ± 0.382 kcal/mol in data set [3] (x1 = 0.11); 0.129 ± 0.311 kcal/mol in data set [3] (x1 = 0.34); 0.203 ± 0.335 kcal/mol in data set [3] (x1 = 0.58); 0.0478 ± 0.263 kcal/mol in data set [3] (x1 = 0.71).

Regarding `O=P([O-])([O-])[O-].[Gd+3]` [gadolinium orthophosphate], in data set [1], the mass density was 5980 ± 40 kg/m3.

For the compound `O=P([O-])([O-])[O-].[Gd+3]` [gadolinium orthophosphate] + O=P([O-])([O-])[O-].[La+3], the mass density in data set [2] (100 kPa, x1 = 0.11) amounted to 5160 ± 30 kg/m3; in data set [2] (100 kPa, x1 = 0.24), 5260 ± 30 kg/m3; in data set [2] (100 kPa, x1 = 0.34), 5340 ± 30 kg/m3; in data set [2] (100 kPa, x1 = 0.44) it was 5440 ± 40 kg/m3; in data set [2] (100 kPa, x1 = 0.55) it was 5540 ± 30 kg/m3; in data set [2] (100 kPa, x1 = 0.64), 5630 ± 30 kg/m3. In addition, the mass density in data set [2] (100 kPa, x1 = 0.76) is 5740 ± 40 kg/m3; in data set [2] (100 kPa, x1 = 0.84), 5820 ± 40 kg/m3; in data set [2] (100 kPa, x1 = 0.92), 5900 ± 40 kg/m3; in data set [2] (100 kPa, x1 = 1), 5980 ± 40 kg/m3. Besides, the excess molar enthalpy in data set [3] (x1 = 0.24) stood at 0.275 ± 0.287 kcal/mol; in data set [3] (x1 = 0.44), 0.777 ± 0.287 kcal/mol; in data set [3] (x1 = 0.55), 0.705 ± 0.311 kcal/mol; in data set [3] (x1 = 0.76), 0.521 ± 0.239 kcal/mol.

`O=P([O-])([O-])[O-].[La+3]` [lanthanum orthophosphate]: the mass density in data set [1] is listed as 5060 ± 30 kg/m3.

As to `O=P([O-])([O-])[O-].[La+3]` [lanthanum orthophosphate] + O=P([O-])([O-])[O-].[Eu+3], the mass density in data set [2] (101 kPa, x2 = 0) is 5060 ± 30 kg/m3.

Regarding `O=P([O-])([O-])[O-].[La+3]` [lanthanum orthophosphate] + O=P([O-])([O-])[O-].[Gd+3], the mass density in data set [2] (100 kPa, x2 = 0) turned out to be 5060 ± 30 kg/m3.
